According to US20250290117A1, “MOLECULAR PHENOTYPIC ANTIMICROBIAL SUSCEPTIBILITY TESTING” (priority 2024, published 2025):

Key:
[1] = tested on: pathogens of clinical samples; test: Molecular phenotypic antimicrobial susceptibility test of clinical samples, extraction DNA purification step prior to PCR (Table 6); format: cell-based
Protocol: (§1) Detection of Molecular Phenotypic Antimicrobial Susceptibility. Disclosed herein are the methods for the detection of phenotypic antimicrobial susceptibility via molecular methods. The present invention describes how a specimen 100 with a known microbial load is incubated and then exposed to a panel of antimicrobial agents to determine sensitivity (prevention of growth) or resistance (allowance of growth) to the specific antimicrobial agents tested utilizing molecular methods.
(§2) Sample Collection. Specimens 100 are collected from patients using sterile collection processes that are employed in routine clinical care. Specimens are transported to the testing facility in boric acid preservative.
(§3) Preparation of the Specimens for Testing. […] The process for pathogen isolation includes steps of harvesting the pathogen (e.g., via centrifugation), isolating pathogen DNA via a DNA isolation and/or purification kit, and performing PCR on the pathogen DNA via PCR components (e.g., primers, enzymes, buffers) as would be known to the skilled artisan. […] This aliquot is used for antimicrobial susceptibility testing if indicated based on the pathogen detection results. […] Specimens 100 with lower pathogen loads could also be utilized in the antibiotic susceptibility phase of testing with or without a longer incubation period.
(§4) Preparation of Antimicrobial Susceptibility Testing Plates. Antimicrobial solutions are prepared at known concentrations. The specific antimicrobials and their concentrations are selected based on the pathogen of interest and the described antimicrobial resistance breakpoints for that specimen pathogen and antimicrobial combination. These antimicrobials have been selected based on those commonly utilized by healthcare providers in routine clinical care for the specific type of suspected infection. The number and types of antimicrobials utilized can be customized based on the infection source, pathogen detected, patient-specific factors such as allergies or other health conditions (e.g., chronic kidney disease or concurrent medication use), or healthcare provider preferences such as antimicrobial availability or cost.
(§5) The antimicrobial solutions are prepared in liquid culture media (such as Muller Hinton Broth) to achieve the desired antimicrobial concentration and are then stored at −80° C. until use. For a given specimen, each antimicrobial is tested at a single or multiple antimicrobial concentration(s) which is its established breakpoints for sensitivity. The antimicrobial solutions are prepared and plated out for each specific pathogen. […] This allows for evaluation of pathogen load when no antimicrobial is present.
(§6) Specimen Exposure to Antimicrobial Agents. The 1 mL aliquot of the specimen 100 previously mixed with culture media and incubated is obtained. Using optical density measurements as a guide, the specimen 100 is diluted to 0.5 McFarland.
(§7) Antimicrobial exposure plates are typically placed into an incubator for 12-16 hours.
(§8) Nucleic Acid Amplification of Antimicrobial Agent Exposed Pathogens. The antimicrobial exposure plate is removed after the period of incubation. The specimen then undergoes a purification or lysis step. For example, the specimen may undergo a purification step (e.g., magnetic bead-based or other separation protocol to isolate genetic material). In another example, the specimen may undergo a cell lysis step. For example, buffer (e.g., lysis buffer) may be added and incubated in the thermal cycler for preparation for direct PCR. Next, the specimen may undergo a polymerase chain reaction (PCR) testing protocol, whereby a semi-quantitative PCR method is utilized. This may be completed either with or without a specific extraction protocol step. The pathogens can be individually targeted and detected, or a universal genetic sequence can be utilized to detect the antimicrobial susceptibility of the specimen as a whole.

[2] = tested on: pathogens of clinical samples; test: Molecular phenotypic antimicrobial susceptibility test of clinical samples, direct PCR without a separate DNA purification step (Table 6); format: cell-based
Protocol: as §1, §2, §3, §4, §5, §6, §7, §8

[3] = E. coli, clinical sample of r10-r24
[4] = E. coli, clinical sample of r158-r172
[5] = K. aerogenes, clinical sample of r136-r150
[6] = K. pneumoniae, clinical sample of r121-r135
[7] = M. morganii, clinical sample of r55-r69
[8] = M. morganii, clinical sample of r70-r84
[9] = P. mirabilis, clinical sample of r25-r39
[10] = P. mirabilis, clinical sample of r40-r54
[11] = S. aureus, clinical sample of r85-r92

CO[C@@]1(NC(=O)Cc2cccs2)C(=O)N2C(C(=O)O)=C(COC(N)=O)CS[C@@H]21 [Cefoxitin]
Molecular Antibiotic Susceptibility Result [1, 3]: Sensitive (Antimicrobial wells with pathogen load detected below the control wells (typically >2 cycle thresholds later) may be reported as Sensitive) | Ct ([1]; E. coli, clinical sample of r10-r24, Ct Control Avg 18.112): 26.364 | Molecular Antibiotic Susceptibility Result [1, 4]: Sensitive (Antimicrobial wells with pathogen load detected below the control wells (typically >2 cycle thresholds later) may be reported as Sensitive) | Ct ([1]; E. coli, clinical sample of r158-r172, Ct Control Avg 20.146): 31.631 | Molecular Antibiotic Susceptibility Result [1, 5]: Resistant | Ct ([1]; K. aerogenes, clinical sample of r136-r150, Ct Control Avg 19.994): 20.635 | Molecular Antibiotic Susceptibility Result [1, 6]: Sensitive (Antimicrobial wells with pathogen load detected below the control wells (typically >2 cycle thresholds later) may be reported as Sensitive) | Ct ([1]; K. pneumoniae, clinical sample of r121-r135, Ct Control Avg 24.272): 32.55 | Molecular Antibiotic Susceptibility Result [1, 7]: Sensitive (Antimicrobial wells with pathogen load detected below the control wells (typically >2 cycle thresholds later) may be reported as Sensitive) | Ct ([1]; M. morganii, clinical sample of r55-r69, Ct Control Avg 28.86): 37.168 | Molecular Antibiotic Susceptibility Result [1, 8]: Sensitive (Antimicrobial wells with pathogen load detected below the control wells (typically >2 cycle thresholds later) may be reported as Sensitive) | Ct ([1]; M. morganii, clinical sample of r70-r84, Ct Control Avg 27.053): 35.243 | Molecular Antibiotic Susceptibility Result [1, 9]: Sensitive (Antimicrobial wells with pathogen load detected below the control wells (typically >2 cycle thresholds later) may be reported as Sensitive) | Ct ([1]; P. mirabilis, clinical sample of r25-r39, Ct Control Avg 26.064): 29.443 | Molecular Antibiotic Susceptibility Result [1, 10]: Sensitive (Antimicrobial wells with pathogen load detected below the control wells (typically >2 cycle thresholds later) may be reported as Sensitive) | Ct ([1]; P. mirabilis, clinical sample of r40-r54, Ct Control Avg 26.987): 30.603 | Molecular Antibiotic Susceptibility Result [1, 11]: Resistant | Ct ([1]; S. aureus, clinical sample of r85-r92, Ct Control Avg 24.32): 15.037 | Molecular Antibiotic Susceptibility Result [2, 3]: Sensitive (Antimicrobial wells with pathogen load detected below the control wells (typically >2 cycle thresholds later) may be reported as Sensitive) | Ct ([2]; E. coli, clinical sample of r10-r24, Ct control avg 12.97): 25.006 | Molecular Antibiotic Susceptibility Result [2, 4]: Sensitive (Antimicrobial wells with pathogen load detected below the control wells (typically >2 cycle thresholds later) may be reported as Sensitive) | Ct ([2]; E. coli, clinical sample of r158-r172, Ct control avg 12.894): 29.986 | Molecular Antibiotic Susceptibility Result [2, 5]: Resistant | Ct ([2]; K. aerogenes, clinical sample of r136-r150, Ct control avg 13.854): 13.468 | Molecular Antibiotic Susceptibility Result [2, 6]: Sensitive (Antimicrobial wells with pathogen load detected below the control wells (typically >2 cycle thresholds later) may be reported as Sensitive) | Ct ([2]; K. pneumoniae, clinical sample of r121-r135, Ct control avg […]): 27.384 | Molecular Antibiotic Susceptibility Result [2, 7]: Sensitive (Antimicrobial wells with pathogen load detected below the control wells (typically >2 cycle thresholds later) may be reported as Sensitive) | Ct ([2]; M. morganii, clinical sample of r55-r69, Ct control avg 12.09): 29.041 | Molecular Antibiotic Susceptibility Result [2, 8]: Sensitive (Antimicrobial wells with pathogen load detected below the control wells (typically >2 cycle thresholds later) may be reported as Sensitive) | Ct ([2]; M. morganii, clinical sample of r70-r84, Ct control avg 11.677): 29.107 | Molecular Antibiotic Susceptibility Result [2, 9]: Sensitive (Antimicrobial wells with pathogen load detected below the control wells (typically >2 cycle thresholds later) may be reported as Sensitive) | Ct ([2]; P. mirabilis, clinical sample of r25-r39, Ct control avg 11.801): 27.055 | Molecular Antibiotic Susceptibility Result [2, 10]: Sensitive (Antimicrobial wells with pathogen load detected below the control wells (typically >2 cycle thresholds later) may be reported as Sensitive) | Ct ([2]; P. mirabilis, clinical sample of r40-r54, Ct control avg 10.06): 26.904 | Molecular Antibiotic Susceptibility Result [2, 11]: Resistant | Ct ([2]; S. aureus, clinical sample of r85-r92, Ct control avg 20.309): 20.586
